Laboratory results published in patent publication US20100248365A1, “GANGLIOSIDE BIOSYNTHESIS MODULATORS” (ZACHARON PHARMACEUTICALS, INC., priority 2009, published 2010).

Target: T1, ST3Gal 1 (rat recombinant a 2,3-Sialytransferase) (Rattus norvegicus, UniProt Q6H8N0)
T1 sequence (Q6H8N0 1-340): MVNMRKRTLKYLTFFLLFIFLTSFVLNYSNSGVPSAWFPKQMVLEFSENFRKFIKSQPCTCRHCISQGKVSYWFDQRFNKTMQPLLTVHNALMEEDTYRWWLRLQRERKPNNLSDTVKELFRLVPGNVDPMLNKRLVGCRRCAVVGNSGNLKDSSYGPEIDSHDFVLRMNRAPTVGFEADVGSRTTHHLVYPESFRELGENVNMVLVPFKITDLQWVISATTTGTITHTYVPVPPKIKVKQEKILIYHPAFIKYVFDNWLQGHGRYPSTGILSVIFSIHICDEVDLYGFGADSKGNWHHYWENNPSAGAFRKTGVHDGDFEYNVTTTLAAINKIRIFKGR
Assay: ST3Gal 1 assay with 2AA-labeled GSL standards, HPLC readout
Format: biochemical
Settings: b350 ties FIG. 5/6 (compound 1) to the ST3Gal 1 assay
Procedure: The enzyme ST3Gal 1 (rat recombinant a 2,3-Sialytransferase) assay was carried out with 2AA-labeled GSL standards as substrate. The complete incubation mixture contained the following components in a final volume of 20 ul: 50 mM cacodylate buffer, pH6.2, 10 mM MgCl2, 0.2% TX100, 2 mM CMP-sialic acid (CMP-SA), 100 ng 2AA-GM1/GD1b, 10 μU of ST3Gal1 enzyme. The reaction was carried out @37° C. for 30 min. Control reactions were done without CMP-SA. The reaction was analyzed by HPLC as described above. The % of product conversion was assessed by comparison to control samples. The enzyme titration curve was determined from 10, 3, 1, 0.3 and 0.1 μU of enzyme. The time course was determined using 10 μU of the enzyme, @ 0, 5, 10, 15, 30, 45, 60, 90, and 120 min. […] FIG. 5 illustrates the activity of late stage selective ganglioside inhibitors.

inhibition of ST3Gal 1 enzyme activity (FIG. 5): inhibition
Structure (SMILES): Cc1nn(-c2ccccc2)c(C)c1C=NN1CCN(Cc2ccccc2Cl)CC1 [compound 1, 4-(2-chlorobenzyl)-N-((3,5-dimethyl-1-phenyl-1H-pyrazol-4-yl)methylene)piperazin-1-amine]
